Measured values from patent publication US20220196636A1, “GRID OF RESPONSES INDICATING DRUG SENSITIVITY” (The Johns Hopkins University, priority 2019, published 2022).

Assays:
Type in all cases: cell-based, human
[1] = tested on: engineered heart slices (EHS) of hiPSC-CMs; assay: GRIDS assay (pace-capture and spontaneous activity by optical mapping), EHS
Description: (§1) Each EHS was placed in Tyrode's solution and stained with 10 μM di-4-ANEPPS for 10 min at 37° C. The EHS was rinsed several times in a dish with warm Tyrode's solution, and then immersed in Tyrode's solution containing 10 μM blebbistatin to suppress contraction. The dish was placed on a 37° C. heated stage for the duration of the experiment. At least 5 min after adding blebbistatin, the EHS was stimulated with a point electrode and optically mapped using a CMOS camera (MiCAM Ultima-L, SciMedia). The EHS was paced by 5 ms monophasic rectangular pulses at stepwise increasing rates starting at 0.5 Hz. For some samples, E-4031, chromanol 293B, nifedipine, Bay K 8644, BaCl2, or cromakalim was added for 7 min prior to mapping. Mapping data were analyzed using custom MATLAB scripts (details provided in Supplemental Information). AP durations at 30% and 80% repolarization (APD30 and APD80) were calculated from the optical voltage signal. For drug studies, APD and conduction velocity (CV) measurements at each concentration were plotted as a percentage of APD and CV measured at baseline, with no drug present.
(§2) To test the responsiveness of EHS to ion channel modulators, an assay referred to herein as “GRIDS” (grid of responses indicating drug sensitivity) was developed that characterizes the ability of a cardiac preparation to respond to pacing when exposed to a range of drug concentrations. This assay was used to compare EHS to age-matched monolayer cultures. APs of EHS and monolayers were evaluated at each drug concentration in the absence of pacing and when subjected to electrical stimulation at PCLs ranging from 2000 ms to 500 ms. By incorporating a range of pacing rates, GRIDS manifests the distinct sensitivities of different ion currents (Ravens and Wettwer, 1998) and their rate dependencies, and provides a “fingerprint” of drug sensitivity. Several types of responses were observed: no spontaneous activity (FIG. 6A,i), spontaneously generated APs when no pacing was applied (FIG. 6A,ii), extra APs in between pacing stimuli (FIG. 6A, iii), one AP generated for each pacing stimulus—i.e., 1:1 pace-capture (FIG. 6A, iv), and failure to maintain 1:1 pace-capture (lost beats) (FIG. 6A,v).
(§3) EHS were stained with 10 μM of the voltage-sensitive dye di-4-ANEPPS (Sigma-Aldrich Corp.) in Tyrode's solution for 10 minutes at 37° C. Afterwards, EHS were rinsed twice with Tyrode's and placed in a 35-mm dish filled with Tyrode's and 10 μM of the contraction inhibitor blebbistatin (Sigma-Aldrich Corp.). This dish was set on a stage heated to 37° C. and allowed to equilibrate for at least 5 minutes. Samples were point paced with at least 30 stimulus pulses at a range of cycle lengths, starting from 2000 ms and decreasing until the they lost capture. EHS were optically mapped during pacing using a 100×100 pixel CMOS camera (MiCAM Ultima-L, SciMedia, Costa Mesa, Calif.).
(§4) During drug studies, recordings at a range of pacing rates were taken at baseline (prior to the addition of drug) before replacing the solution in the dish with Tyrode's supplemented with blebbistatin and the lowest dose of drug studied. The sample was paced at the same range of rates and mapped 7 minutes after the addition of drug. Afterwards, the bath solution was replaced with Tyrode's with blebbistatin and the next lowest drug dose and the procedure repeated. This method was applied for all doses of each drug and, except where noted in the figures, only one drug was tested per sample. In these studies, we superfused EHS or monolayers with the following drugs: E-4031 (Tocris Bioscience), BaCl2 (Sigma-Aldrich Corp.), Chromanol 293B (Tocris Bioscience), Nifedipine (Tocris Bioscience), Bay K 8644 (Tocris Bioscience), and Cromakalim (Sigma-Aldrich Corp.).
(§5) Optical mapping data was analyzed using custom MATLAB scripts. […]

hiPSC-CM monolayers [2] = assay: GRIDS assay (pace-capture and spontaneous activity by optical mapping), monolayers
Description: as §1, §2, §3, §4, §5

[3] = tested on: engineered heart slices (EHS) of hiPSC-CMs; assay: Optical mapping of action potential duration and conduction velocity, EHS; details: for change in APD80 compared to baseline, d201 EHS / change in conduction velocity compared to baseline, d201 EHS: paced at 1900 ms, n=4
Description: as §1, §3, §4
(§6) Optical mapping data was analyzed using custom MATLAB scripts. Recordings at each pixel were de-noised using a previously described method (Little and Jones, 2010) to regulate total signal variance and convolved with a 5×5 spatial Gaussian filter. Activation times were defined as the maximum of the derivative of membrane potential (dV/dt), which was calculated as previously described (Chartrand, 2011). Histograms of local conduction velocities for each EHS were fitted to a Gaussian curve and the mean of the curve was defined as the average conduction velocity (CV). To determine longitudinal and transverse CVs, a bimodal Gaussian curve was fitted to the local CVs. Action potential durations at 30 and 80 percent repolarization (APD30 and APD80) were determined for all local traces over the recording region for each EHS and fit with Gaussian curves to determine the mean value for each EHS, as described for CV measurements. For drug studies, average APD and CV measurements for each dose were normalized by average APD and CV measurements at baseline (without the drug).

hiPSC-CM monolayers [4] = assay: Optical mapping of action potential duration and conduction velocity, monolayers
Description: as §1, §3, §4, §6

monolayers of hiPSC-CMs = assay: GRIDS analysis applied to video-based contraction data, monolayers; details: n=6
Description: GRIDS analysis was applied to contraction data collected from monolayers of hiPSC-CMs. Each monolayer (cultured on a plastic coverslip) was placed in a 35-mm dish filled with cell culture medium and set on the stage of a microscope (LS720, Etaluma) fitted within a cell culture incubator. Monolayers were superfused with increasing concentrations of E-4031 (FIG. 15) or isoproterenol (FIG. 16), ranging from 0 to 10 μM, and paced at decreasing cycle lengths (increasing rates), ranging from 2000 ms to 500 ms, using a field electrode. At each drug dose and paced cycle length, a 30-second video of the contracting cells was recorded at a rate of 20-30 frames per second. The cellular contraction was quantified by subtracting one reference frame of video from all other frames, summing the pixels in each frame after subtraction, plotting the summed signal over time, and detecting the peaks in the signal.

[5] = tested on: engineered heart slices (EHS) of hiPSC-CMs; assay: Contraction measurements of EHS (change in EHS area during pacing)
Description: WT d24-78 EHS were placed in a 35-mm tissue culture mm dish filled with Tyrode's solution and maintained at 31±0.1° C. for the duration of the experiment. A section of each EHS was detached from the edge of the coverslip so that it could move freely. Each EHS was paced at 1 Hz, 1.5 Hz, and 2 Hz while the free region was imaged with a CCD camera. A custom MATLAB script was used to segment the image and calculate the change in EHS area over time, which was used as a measure of contraction.
Tyrode's solution was prepared by combining 1.8 mM CaCl2, 5 mM glucose, 5 mM HEPES, 1 mM MgCl2, 5.4 mM KCl, 135 mM NaCl, and 0.33 mM NaH2PO4 in ddH2O and adding NaOH to raise the pH to 7.4 (all chemicals from Sigma-Aldrich Corp.). EHS were placed in a 35-mm dish filled with Tyrode's solution and set on a stage heated to 31±0.1° C. (Warner Instruments, Hamden, Conn.). A section of each EHS was unhooked and allowed to move freely throughout the duration of the experiment. The EHS were allowed to equilibrate in Tyrode's for 5 minutes before the start of pacing with a point electrode. Each sample was paced for 1 minute at each of 3 cycle lengths (1000 ms, 666 ms, 500 ms), while the freely moving region was kept approximately vertical in the field of view and imaged at 4× magnification using a CCD camera (Swiftcam, Swift, Schertz, Tex.) at a rate of 14-17 fps with 320×256 pixel resolution. Samples also were imaged during pacing at 666 ms after the application of 1 μM isoproterenol (Sigma-Aldrich Corp.) for 2 minutes and after washout of the drug for 2 minutes. A pacing cycle length shorter than 1000 ms was applied in the presence of isoproterenol to overcome the increase in spontaneous rate in response to the drug. […] From this, the area of EHS was calculated in each image. The change in area from a fully relaxed state (reference frame, designated as 100% EHS area) was determined for each frame in the time series. […]

[6] = chromanol 293B, all concentrations tested
[7] = chromanol 293B 1 μM to 60 μM, PCL 1000 ms
[8] = E-4031 50 nM to 10 μM, PCL 1500 ms, concentration-dependent
[9] = additional 1 μM Bay K 8644 after 1 μM cromakalim
[10] = BaCl2 up to 150 μM, PCL 1000 ms, concentration-dependent

## CCS(=O)(=O)N(C)[C@H]1c2cc(C#N)ccc2OC(C)(C)[C@@H]1O (racemic) [chromanol 293B]
[1]; [6]
  pace-capture (GRIDS), EHS: could be pace-captured at all PCLs from 2000 ms down to 500 ms
hiPSC-CM monolayers [2]; [6]
  pace-capture (GRIDS), monolayers: could be pace-captured at all PCLs from 2000 ms down to 500 ms
hiPSC-CM monolayers [2]; chromanol 293B, concentrations up to 60 μM
  fraction of monolayers exhibiting spontaneous activity when no pacing was applied: non-zero and constant at all concentrations except for 5 μM, when it was zero, and 60 μM, when all monolayers exhibited spontaneous activity
[3]; [7]
  change in APD80, EHS: no effect
  change in CV, EHS: no effect
hiPSC-CM monolayers [4]; [7]
  change in APD80, monolayers: no effect
  change in CV, monolayers: no effect

## Cc1cccc(CCN2CCC(C(=O)c3ccc(NS(C)(=O)=O)cc3)CC2)n1 [E-4031]
[1]; E-4031 greater than 50 nM (tested 1 nM to 10 μM), rapid pacing
  sensitivity of pace-capture (GRIDS), EHS compared with monolayers: lower sensitivity of EHS to E-4031
hiPSC-CM monolayers [2]; E-4031 greater than 50 nM (tested 1 nM to 10 μM), increasingly shorter PCLs
  loss of capture during pacing (GRIDS), monolayers: a greater fraction of monolayers than EHS lost capture
[3]; [8]
  change in APD80, EHS: prolonged APD80
  change in CV, EHS: slowed CV
hiPSC-CM monolayers [4]; [8]
  change in APD80, monolayers: prolonged APD80
  change in CV, monolayers: slowed CV
Monolayers of hiPSC-CMs; E-4031 0 to 10 μM, PCL 2000 ms to 500 ms, more pronounced at higher doses
  pace-capture from contraction video (GRIDS), monolayers: began to lose capture as the pacing rate was increased

## CC(C)NCC(O)c1ccc(O)c(O)c1 (centres unmarked) [isoproterenol]
[5]; 1 μM isoproterenol, PCL 666 ms (1.5 Hz), n=8
  area change during contraction relative to baseline: 1.5±0.6 fold
[5]; EHS
  inotropic response: positive inotropic response
[5]; after washout of 1 μM isoproterenol, PCL 666 ms, n=8
  area change during contraction relative to baseline after washout of the drug: 1.1±0.4 times the baseline value
Monolayers of hiPSC-CMs; isoproterenol 0 to 10 μM, no pacing or 2000 ms pacing
  spontaneous rate from contraction video (GRIDS), monolayers: increased the spontaneous rate of the monolayers in a dose-dependent manner

## CC1(C)Oc2ccc(C#N)cc2C(N2CCCC2=O)C1O (centres unmarked) [cromakalim]
[3]; 1 μM cromakalim
  change in APD80 compared to baseline, d201 EHS: decreased APD80
  change in conduction velocity compared to baseline, d201 EHS: slowed conduction velocity

## COC(=O)C1=C(C)NC(C)=C([N+](=O)[O-])C1c1ccccc1C(F)(F)F (centres unmarked) [Bay K 8644]
[3]; Bay K 8644 0.3 μM to 100 μM, concentration-dependent, n=3
  change in CV, EHS: decreased CV
[3]; Bay K 8644 0.3 μM to 100 μM, paced at 700 ms, concentration-dependent, n=3
  change in APD, EHS: increased APD
[3]; Bay K 8644, n=3
  maximum capture rate, EHS: decreased the maximum capture rate
[3]; [9]
  change in APD80 compared to baseline, d201 EHS: decreased APD80
  change in conduction velocity compared to baseline, d201 EHS: slowed conduction velocity

## [Ba+2].[Cl-].[Cl-] [BaCl2]
[1]; 1 mM BaCl2, 500 ms PCL
  pace-capture (GRIDS), EHS: all of the EHS tested lost capture
[1]; BaCl2
  sensitivity (GRIDS), EHS compared with monolayers: less sensitive to BaCl2 than monolayers
[1]; BaCl2, no pacing
  spontaneous rate, EHS: increased in a concentration-dependent manner
[1]; all concentrations of BaCl2
  pace-capture (GRIDS), EHS: could be overdrive paced at 700 ms and 1000 ms PCL for all concentrations
hiPSC-CM monolayers [2]; 500 μM BaCl2
  pace-capture (GRIDS), monolayers: could be partially pace-captured only at CLs of 1000 ms and less
  spontaneous beating rate, monolayers: up to 1 Hz
hiPSC-CM monolayers [2]; 1 mM BaCl2
  pace-capture (GRIDS), monolayers: only a small fraction could be partially pace-captured at a CL of 500 ms
  spontaneous beating rate, nearly all monolayers: > 2 Hz
hiPSC-CM monolayers [2]; BaCl2, no pacing, effect greater in monolayers than in EHS
  spontaneous rate, monolayers: increased in a concentration-dependent manner
[3]; [10]
  change in APD80, EHS: increased APD80
[3]; BaCl2 up to 150 μM, PCL 1000 ms, statistically significant
  change in CV, EHS: decreased CV
hiPSC-CM monolayers [4]; [10]
  change in APD80, monolayers: increased APD80
hiPSC-CM monolayers [4]; BaCl2 up to 150 μM, PCL 1000 ms, did not reach statistical significance
  change in CV, monolayers: decreased CV
